# Legend:
# Tyro3 = target: T1, Tyro3 (Homo sapiens, UniProt Q06418); assay: Human phospho-RTK array, HuH7: Tyro-3; assay type: cell-based; details: 24 h, untreated 0.15
# T1 construct: we examined the constitutively phosphorylated IGF-1R, EphA2 and Tyro3; endogenous in cells; host or cells: HuH7
# T1 sequence (Q06418 41-890): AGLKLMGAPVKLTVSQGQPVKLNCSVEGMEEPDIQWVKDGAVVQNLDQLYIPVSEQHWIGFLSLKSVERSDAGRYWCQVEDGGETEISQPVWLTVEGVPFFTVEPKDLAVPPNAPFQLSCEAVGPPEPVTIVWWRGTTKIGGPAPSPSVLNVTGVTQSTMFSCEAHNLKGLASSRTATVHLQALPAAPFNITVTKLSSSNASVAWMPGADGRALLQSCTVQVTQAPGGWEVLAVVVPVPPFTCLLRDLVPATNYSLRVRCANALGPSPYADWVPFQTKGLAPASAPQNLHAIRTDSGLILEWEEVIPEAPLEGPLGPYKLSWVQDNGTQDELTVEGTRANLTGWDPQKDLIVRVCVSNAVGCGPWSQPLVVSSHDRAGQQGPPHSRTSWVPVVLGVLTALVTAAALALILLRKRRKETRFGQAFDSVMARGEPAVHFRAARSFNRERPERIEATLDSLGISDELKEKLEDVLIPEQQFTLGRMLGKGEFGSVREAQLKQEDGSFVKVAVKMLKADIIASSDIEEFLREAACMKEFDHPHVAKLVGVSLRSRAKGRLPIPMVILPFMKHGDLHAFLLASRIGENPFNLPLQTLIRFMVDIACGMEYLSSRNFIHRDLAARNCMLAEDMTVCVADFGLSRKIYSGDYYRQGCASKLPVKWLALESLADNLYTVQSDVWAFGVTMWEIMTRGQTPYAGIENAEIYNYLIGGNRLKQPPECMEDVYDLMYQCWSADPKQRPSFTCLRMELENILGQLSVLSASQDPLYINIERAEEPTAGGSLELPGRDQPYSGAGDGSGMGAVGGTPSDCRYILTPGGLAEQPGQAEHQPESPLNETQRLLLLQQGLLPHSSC
# Procedure: (§1) Kinase phosphorylation changes were determined with human phospho-RTK array.
# (§2) Cells harvesting, hybridization with RTK array and incubation with anti-phosphotyrosine were performed according to manufacturer's instruction. Imaging and quantification of the spots intensities was with Fujifilm LAS-3000 (Tokyo, Japan). Average signal of the duplicate spots for each RTK was determined.
# [1] = system: Hep3B, Hs817T, PLC/PRF/5 and SK-Hep 1; assay: Cell Titer-Glo viability, panel of 4 additional HCC cell lines; assay type: cell-based, human
# Procedure: The efficacy of compound 47 against HCC proliferation was tested on a wider panel of HCC cell lines: Hep3B ([…]), Hs817T (▪), PLC/PRF/5 (▴) and SK-Hep 1 (▾), as determined by Cell Titer-Glo assay.
# Cells were plated at 5000-7000 cells/per well and incubated for 24 h before treatment. […] Cell Titer-Glo (Promega, Madison, Wis.) assay was performed according to manufacturer's instruction with luminescence detected on SpectraMax M5 (Molecular Devices, Sunnyvale, Calif.). Data was expressed as percentage of viability vs. vehicle-treated controls.
# Accordingly, Compound 47 was screened against a larger panel of 4 additional HCC cell lines.
# EphA2 = target: T2, EphA2 (Homo sapiens, UniProt P29317); assay: Human phospho-RTK array, HuH7: EphA2; assay type: cell-based; details: 24 h, untreated 0.07
# T2 construct: we examined the constitutively phosphorylated IGF-1R, EphA2 and Tyro3; endogenous in cells; host or cells: HuH7
# T2 sequence (P29317 24-976): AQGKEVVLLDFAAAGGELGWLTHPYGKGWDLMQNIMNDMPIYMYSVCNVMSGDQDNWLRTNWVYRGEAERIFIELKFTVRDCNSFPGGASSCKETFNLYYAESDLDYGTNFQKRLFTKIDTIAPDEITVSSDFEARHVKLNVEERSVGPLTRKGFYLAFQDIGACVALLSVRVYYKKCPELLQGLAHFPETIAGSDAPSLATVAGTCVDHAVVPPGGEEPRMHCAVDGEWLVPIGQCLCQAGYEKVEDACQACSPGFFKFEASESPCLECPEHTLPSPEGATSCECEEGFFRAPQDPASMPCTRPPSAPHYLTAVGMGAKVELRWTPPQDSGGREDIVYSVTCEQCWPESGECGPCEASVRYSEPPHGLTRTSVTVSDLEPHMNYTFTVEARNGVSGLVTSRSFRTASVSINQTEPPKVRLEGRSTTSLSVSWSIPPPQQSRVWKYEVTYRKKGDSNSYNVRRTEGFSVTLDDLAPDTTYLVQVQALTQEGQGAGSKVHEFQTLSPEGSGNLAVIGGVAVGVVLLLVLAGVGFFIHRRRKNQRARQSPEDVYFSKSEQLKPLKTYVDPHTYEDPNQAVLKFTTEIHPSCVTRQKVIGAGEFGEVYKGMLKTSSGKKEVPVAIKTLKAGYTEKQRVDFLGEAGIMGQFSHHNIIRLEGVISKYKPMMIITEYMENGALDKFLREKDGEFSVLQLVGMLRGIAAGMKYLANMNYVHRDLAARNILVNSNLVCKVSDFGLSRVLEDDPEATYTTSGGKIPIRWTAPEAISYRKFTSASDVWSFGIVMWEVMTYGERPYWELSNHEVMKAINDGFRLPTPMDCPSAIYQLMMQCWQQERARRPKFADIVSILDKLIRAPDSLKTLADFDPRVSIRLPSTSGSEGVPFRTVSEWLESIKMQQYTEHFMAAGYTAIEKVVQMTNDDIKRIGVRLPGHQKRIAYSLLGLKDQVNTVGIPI
# Procedure: as §1, §2
structure (smiles),measurement,setting,value
"O=C1Nc2cc(Cl)ccc2/C1=C\c1cccc(C(F)(F)F)c1 [Compound 47, (E)-6-Chloro-3-(3-(trifluoromethyl)benzylidene)indolin-2-one]",Tyro-3 Phosphorylation,"Tyro3; serum starved HuH7, 1 μM",0.10 Arbitrary units
same,Tyro-3 Phosphorylation,"Tyro3; serum starved HuH7, 5 μM",0.11 Arbitrary units
same,Tyro-3 Phosphorylation,"Tyro3; serum starved HuH7, 10 μM",0.07 Arbitrary units
same,IC50 in 3 of the 4 additional HCC cell lines tested,[1],low micromolar or submicromolar
same,EphA2 Phosphorylation,"EphA2; serum starved HuH7, 1 μM",0.09 Arbitrary units
same,EphA2 Phosphorylation,"EphA2; serum starved HuH7, 5 μM",0.05 Arbitrary units
same,EphA2 Phosphorylation,"EphA2; serum starved HuH7, 10 μM",0.02 Arbitrary units

# Reference: patent US20110269812A1, “NOVEL BENZYLIDENE-INDOLINONE AND THEIR MEDICAL AND DIAGNOSTIC USES” (Agency for Science, Technology and Research, priority 2008, published 2011)
